Test results from PubChem BioAssay (NCI).
Where “and” joins values, the source holds several entries; their conditions need not be identical. Identical values can stand only once.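 Exposure lasted 48 hours, with cells grown in 96-well plates and compounds tested at five concentrations. GI50 = concentration required for 50% inhibition of growth. Definition used: TGI = concentration required for complete inhibition of growth.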

system: DU-145 prostate; assay: DTP human tumour cell line panel, 48 h

Row | Structure (SMILES) | GI50 | TGI
1 | CS(=O)(=O)Nc1cc(-c2ccc3ncnc(Nc4cccc(Cl)c4)c3c2)cnc1Cl | 0.455 µM | 10.3 µM
2 | CN(C)c1ccc(C(O)C2=CC(=O)c3ccccc3C2=O)cc1 (stereo unspecified) | 2.23 µM | 6.27 µM
3 | Clc1ccc(CN2CCCN(Cc3ccc(Cl)cc3)C2c2cc3ccccc3c3ccccc23)cc1 | – | > 100 µM
4 | COc1ccc2c(c1OC)O/C(=C\c1ncc([N+](=O)[O-])n1C)C2=O | 1.42 µM | 6.27 µM
5 | CC1(C)N=C(N)N=C(N)N1c1cccc(CCc2ccccc2)c1 | 0.552 µM | > 100 µM
6 | O=C1Nc2ccc3c(c2/C1=C\c1cc2c(cc1Br)OCO2)OCO3 | 0.49 µM | 2.11 µM
7 | COc1cc2cc(Oc3cccc(NC(=O)Nc4cc(C(F)(F)F)cc(C(F)(F)F)c4)c3)c(C)nc2cc1OC | 2.38 µM | 9.36 µM
8 | COc1ccc(C2NC(=S)NC3=C2CCOc2c3ccc3ccccc23)cc1 (stereo unspecified) | > 100 µM | > 100 µM
9 | COc1cc2ncnc(Oc3cccc(NC(=O)Nc4cc(C(C)(C)C(F)(F)F)on4)c3)c2cc1OC | 3.31 µM and 3.84 µM | > 58.5 µM
10 | COc1ccc(/C=C/C(=O)c2cc3c(N)c(C(=O)Nc4ccc(OC)cc4)sc3nc2C)cc1 | 0.184 µM | 7.78 µM
11 | CCOC(=O)[C@@H]1CSC(CC)=C(C(=O)O)N1 | > 100 µM | > 100 µM
12 | C=C1CC[C@H]2C(C)=CC[C@H]3C(=C)C(=O)O[C@@H]3[C@@H]12 | – | > 100 µM
13 | COc1ccc(-c2csc(Nc3cccc(-c4csc(C)n4)c3)n2)cc1 | 2.14 µM | > 50 µM
14 | COc1cc(/C=C2\SC(N3CCCCC3)=NC2=O)ccc1OCCCCCCOc1ccc(/C=C2\SC(N3CCCCC3)=NC2=O)cc1OC | 5.26 µM | 17.6 µM
15 | CCCCCCCCCCCCCCCC[n+]1ccccc1 | 0.717 µM and 0.938 µM | 1.99 µM and 2.31 µM
16 | CCOC1Oc2ccc(C)cc2C(=O)/C1=C\Nc1ccc(S(N)(=O)=O)cc1 (stereo unspecified) | 12.9 µM | 35.7 µM
17 | Cc1cc(NN=C(c2ccc(O)cc2)c2ccc(O)cc2)c([N+](=O)[O-])cc1[N+](=O)[O-] | 9.83 µM | 29.5 µM
18 | Nc1ccccc1C#Cc1ccccc1C#Cc1cccs1 | 20.6 µM | 48 µM
19 | OCC(O)C(O)C(O)C(O)c1nnc2c(-c3ccccc3)nc3ccccc3n12 (stereo unspecified) | > 100 µM | > 100 µM
20 | CCOc1ccc2cc(-c3nn(CC4CCNCC4)c4ncnc(N)c34)ccc2c1 | 19.1 µM | 55.6 µM
21 | O=C(O)CCCCC1CCSS1 (stereo unspecified) | – | > 100 µM
22 | COc1ccccc1C(=O)N(Cc1ccccc1)c1ccc(Cl)c(C(=O)OC(C)C)c1 | – | > 100 µM
23 | OCCN(CO)CO | – | > 100 µM
24 | COc1ccc(C)cc1NC(=S)C#N | – | > 100 µM
25 | CCCCCC[C@H]1C(=O)O[C@H](C)[C@H](NC(=O)c2cccc(NC=O)c2OC)C(=O)O[C@@H](C)[C@@H]1OC(=O)CCC (tested in a mixture with another compound) | 11.7 µM | 30.1 µM
26 | C=C1C[C@@H]2O[C@H]3[C@H]4[C@@H](CC[C@@](C)(OC(=O)CCC)[C@H]42)[C@@H](C)C(=O)O[C@@]3(C)CC[C@H]1OO | 18 µM | 32.8 µM

system: NCI-H460 lung; assay: DTP human tumour cell line panel, 48 h

Row | Structure (SMILES) | GI50 | TGI
27 | CS(=O)(=O)Nc1cc(-c2ccc3ncnc(Nc4cccc(Cl)c4)c3c2)cnc1Cl | 642 nM | 11.1 µM
28 | CN(C)c1ccc(C(O)C2=CC(=O)c3ccccc3C2=O)cc1 (stereo unspecified) | 51900 nM | > 100 µM
29 | COc1ccc2c(c1OC)O/C(=C\c1ncc([N+](=O)[O-])n1C)C2=O | 925 nM | 4.83 µM
30 | CC1(C)N=C(N)N=C(N)N1c1cccc(CCc2ccccc2)c1 | 257 nM | > 39.3 µM
31 | O=C1Nc2ccc3c(c2/C1=C\c1cc2c(cc1Br)OCO2)OCO3 | 350 nM | 1.35 µM
32 | COc1cc2cc(Oc3cccc(NC(=O)Nc4cc(C(F)(F)F)cc(C(F)(F)F)c4)c3)c(C)nc2cc1OC | 960 nM | 2.72 µM
33 | COc1ccc(C2NC(=S)NC3=C2CCOc2c3ccc3ccccc23)cc1 (stereo unspecified) | 7880 nM | > 100 µM
34 | COc1cc2ncnc(Oc3cccc(NC(=O)Nc4cc(C(C)(C)C(F)(F)F)on4)c3)c2cc1OC | 2200 nM and 3280 nM | 13.9 µM and > 10 µM
35 | COc1ccc(/C=C/C(=O)c2cc3c(N)c(C(=O)Nc4ccc(OC)cc4)sc3nc2C)cc1 | 155 nM | 0.484 µM
36 | CCOC(=O)[C@@H]1CSC(CC)=C(C(=O)O)N1 | > 100000 nM | > 100 µM
37 | C=C1CC[C@H]2C(C)=CC[C@H]3C(=C)C(=O)O[C@@H]3[C@@H]12 | – | > 100 µM
38 | COc1ccc(-c2csc(Nc3cccc(-c4csc(C)n4)c3)n2)cc1 | 354 nM | > 19.3 µM
39 | COc1cc(/C=C2\SC(N3CCCCC3)=NC2=O)ccc1OCCCCCCOc1ccc(/C=C2\SC(N3CCCCC3)=NC2=O)cc1OC | 6840 nM | 23.8 µM
40 | CCCCCCCCCCCCCCCC[n+]1ccccc1 | 388 nM and 553 nM | 1.5 µM and 1.94 µM
41 | CCOC1Oc2ccc(C)cc2C(=O)/C1=C\Nc1ccc(S(N)(=O)=O)cc1 (stereo unspecified) | 17000 nM | > 50 µM
42 | Cc1cc(NN=C(c2ccc(O)cc2)c2ccc(O)cc2)c([N+](=O)[O-])cc1[N+](=O)[O-] | 2620 nM | 8.57 µM
43 | Nc1ccccc1C#Cc1ccccc1C#Cc1cccs1 | 37300 nM | > 100 µM
44 | OCC(O)C(O)C(O)C(O)c1nnc2c(-c3ccccc3)nc3ccccc3n12 (stereo unspecified) | > 100000 nM | > 100 µM
45 | COc1ccc(/C=N/NS(=O)(=O)c2ccccc2)cc1 | – | > 100 µM
46 | CCOc1ccc2cc(-c3nn(CC4CCNCC4)c4ncnc(N)c34)ccc2c1 | 16800 nM | 32.8 µM
47 | O=C(O)CCCCC1CCSS1 (stereo unspecified) | – | > 100 µM
48 | O=C1C(=O)C2(CC1S(=O)(=O)c1ccccc1)c1ccccc1-c1ccccc12 (stereo unspecified) | – | 36.2 µM
49 | O=c1oc2c3ccc4ccccc4c3n(CCN3CCCCC3)c2c2ccccc12 | – | > 43.9 µM
50 | Cc1ccc(S(=O)C(C)C(Cl)c2ccccc2)cc1 (stereo unspecified) | – | > 100 µM
51 | COc1ccccc1C(=O)N(Cc1ccccc1)c1ccc(Cl)c(C(=O)OC(C)C)c1 | – | > 100 µM
52 | OCCN(CO)CO | – | > 100 µM
53 | COc1ccc(Br)c(C(=O)N2CCc3ccccc32)c1N | – | > 100 µM
54 | CCCCCC[C@H]1C(=O)O[C@H](C)[C@H](NC(=O)c2cccc(NC=O)c2OC)C(=O)O[C@@H](C)[C@@H]1OC(=O)CCC (tested in a mixture with another compound) | 4890 nM | 25.5 µM
55 | C=C1C[C@@H]2O[C@H]3[C@H]4[C@@H](CC[C@@](C)(OC(=O)CCC)[C@H]42)[C@@H](C)C(=O)O[C@@]3(C)CC[C@H]1OO | 19300 nM | 35.8 µM

system: CCRF-CEM leukemia; assay: DTP human tumour cell line panel, 48 h

Row | Structure (SMILES) | GI50 | TGI
56 | CS(=O)(=O)Nc1cc(-c2ccc3ncnc(Nc4cccc(Cl)c4)c3c2)cnc1Cl | 463 nM | 20.7 µM
57 | COc1ccc2c(c1OC)O/C(=C\c1ncc([N+](=O)[O-])n1C)C2=O | 297 nM | 2.83 µM
58 | CC1(C)N=C(N)N=C(N)N1c1cccc(CCc2ccccc2)c1 | 566 nM | > 100 µM
59 | O=C1Nc2ccc3c(c2/C1=C\c1cc2c(cc1Br)OCO2)OCO3 | 244 nM | 3.05 µM
60 | COc1cc2cc(Oc3cccc(NC(=O)Nc4cc(C(F)(F)F)cc(C(F)(F)F)c4)c3)c(C)nc2cc1OC | 641 nM | 3.47 µM
61 | COc1ccc(C2NC(=S)NC3=C2CCOc2c3ccc3ccccc23)cc1 (stereo unspecified) | > 100000 nM | > 100 µM
62 | COc1cc2ncnc(Oc3cccc(NC(=O)Nc4cc(C(C)(C)C(F)(F)F)on4)c3)c2cc1OC | 3060 nM and 3260 nM | > 100 µM
63 | COc1ccc(/C=C/C(=O)c2cc3c(N)c(C(=O)Nc4ccc(OC)cc4)sc3nc2C)cc1 | 567 nM | > 50 µM
64 | CCOC(=O)[C@@H]1CSC(CC)=C(C(=O)O)N1 | > 100000 nM | > 100 µM
65 | C=C1CC[C@H]2C(C)=CC[C@H]3C(=C)C(=O)O[C@@H]3[C@@H]12 | – | > 100 µM
66 | CCCCCCCCCCCCCCCC[n+]1ccccc1 | 281 nM | 1.33 µM
